# Measurements taken from PMC7044277 (Nature Communications, 2020).
# Where “and” joins values, the source holds several entries; their conditions need not be identical. Identical values can stand only once.
# Key:
# [1] = target: DRD2 (D2 long receptor) wild-type (Homo sapiens, UniProt P14416); test: Radioligand competition binding, [3H]-N-methylspiperone, HEK293T membranes; settings: DRD2; [3H]-methylspiperone (0.8-1.0 nM); read-out: Ki
# DRD3 wild-type = DRD3 wild-type (Homo sapiens, UniProt P35462); test: Radioligand competition binding, [3H]-N-methylspiperone; settings: DRD3 wild-type; read-out: pKi ± SEM (converted)
# Chain of DRD3 wild-type (P35462 whole entry): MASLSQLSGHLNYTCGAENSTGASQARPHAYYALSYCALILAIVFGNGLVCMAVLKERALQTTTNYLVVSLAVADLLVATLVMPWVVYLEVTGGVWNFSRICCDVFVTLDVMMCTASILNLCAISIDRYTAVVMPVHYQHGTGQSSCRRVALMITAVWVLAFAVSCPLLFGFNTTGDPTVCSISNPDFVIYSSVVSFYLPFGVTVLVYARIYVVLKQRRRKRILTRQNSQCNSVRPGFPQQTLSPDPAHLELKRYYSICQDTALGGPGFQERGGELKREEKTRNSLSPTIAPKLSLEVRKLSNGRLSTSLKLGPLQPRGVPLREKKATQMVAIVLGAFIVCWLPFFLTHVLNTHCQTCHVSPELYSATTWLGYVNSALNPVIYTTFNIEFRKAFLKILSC
# DRD2 (D2 long receptor) [2] = target: T1, DRD2 (D2 long receptor) (Homo sapiens, UniProt P14416); test: Gαi/o-mediated cAMP inhibition (GloSensor split-luciferase cAMP reporter), HEK293T; format: cell-based; settings: DRD2;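 further: compounds applied 15 min at room temperature, then luciferin plus 400 nM isoproterenol to raise cAMP through endogenous β2-adrenergic receptors, luminescence read 15 min later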
# T1 sequence (P14416 whole entry): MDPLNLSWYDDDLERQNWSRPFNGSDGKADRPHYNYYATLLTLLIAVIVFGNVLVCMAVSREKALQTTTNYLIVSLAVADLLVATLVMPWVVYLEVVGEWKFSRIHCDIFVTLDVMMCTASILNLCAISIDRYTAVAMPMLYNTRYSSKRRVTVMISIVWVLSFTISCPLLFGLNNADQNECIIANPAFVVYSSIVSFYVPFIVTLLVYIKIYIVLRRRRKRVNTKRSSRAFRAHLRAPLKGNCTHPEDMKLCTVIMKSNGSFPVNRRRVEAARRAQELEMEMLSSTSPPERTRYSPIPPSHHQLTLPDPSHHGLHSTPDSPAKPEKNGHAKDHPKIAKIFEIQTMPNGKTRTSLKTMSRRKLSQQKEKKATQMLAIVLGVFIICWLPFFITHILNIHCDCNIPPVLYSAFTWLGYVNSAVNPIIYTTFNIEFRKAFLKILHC
# DRD4 (D4.4 variant) = target: T2, DRD4 (D4.4 variant) (Homo sapiens, UniProt P21917); test: Gαi/o-mediated cAMP inhibition (GloSensor); format: cell-based; settings: DRD4; agonist, cAMP inhibition; read-out: EC50 ± SEM
# T2 sequence (P21917 1-419): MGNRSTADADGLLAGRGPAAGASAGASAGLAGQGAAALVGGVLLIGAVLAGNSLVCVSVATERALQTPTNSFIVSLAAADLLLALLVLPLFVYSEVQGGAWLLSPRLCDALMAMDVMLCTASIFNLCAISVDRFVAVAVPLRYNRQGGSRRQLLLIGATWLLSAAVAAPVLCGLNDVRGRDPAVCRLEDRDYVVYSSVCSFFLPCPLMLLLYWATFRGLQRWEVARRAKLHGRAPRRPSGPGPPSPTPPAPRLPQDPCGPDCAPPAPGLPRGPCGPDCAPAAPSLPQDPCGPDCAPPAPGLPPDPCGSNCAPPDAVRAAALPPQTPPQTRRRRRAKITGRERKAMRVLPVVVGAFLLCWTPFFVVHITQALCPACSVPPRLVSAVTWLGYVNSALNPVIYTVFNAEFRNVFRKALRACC
# DRD2 F1103.28L = target: T3, DRD2 F1103.28L (Homo sapiens, UniProt P14416, F110L); test: Gαi/o-mediated cAMP inhibition (GloSensor), mutant; format: cell-based
# T3 construct: expressed in transfected cells; host or cells: HEK293T (ATCC CRL-11268)
# T3 sequence (P14416 whole entry F110L): as the sequence (P14416 whole entry) above, with F110L counted along it
# DRD2 (D2 long receptor) [3] = target: T1, DRD2 (D2 long receptor); test: β-arrestin2 recruitment (Tango), HTLA cells; format: cell-based; settings: for response, concentration-response data point (replicates): Fig_S10a, drug alone
# DRD3 = DRD3 (Homo sapiens, UniProt P35462); test: β-arrestin2 recruitment (Tango); format: cell-based
# Chain of DRD3 (P35462 whole entry): as the sequence (P35462 whole entry) above
# Chain of DRD2 (D2 long receptor) wild-type (P14416 whole entry): as the sequence (P14416 whole entry) above
structure (smiles),measurement,setting,value
CCOc1cccc2cc([C@@H](C)NCC3(O)CCCCC3)oc12 [O4RE6],Ki,[1],690 nM
same,Ki,DRD3 wild-type,115 nM
same,EC50,"DRD2 (D2 long receptor) [2]; agonist, Gαi/o-mediated cAMP inhibition, read-out: EC50 ± SEM",0.45 ± 0.05 nM
same,G protein agonist activity,DRD2 (D2 long receptor) [2]; cAMP inhibition,full agonist
same,Emax,"DRD2 (D2 long receptor) [2]; HEK-293T, read-out: Emax relative to quinpirole response, cAMP inhibition",94.5%
same,EC50,DRD4 (D4.4 variant),> 10000 nM
same,EC50,DRD2 F1103.28L; DRD2 F1103.28L (b138 head prints DRD2 F1063.28L),1.24 ± 0.75 nM
same,Emax,"DRD2 F1103.28L; read-out: Emax relative to quinpirole response, DRD2 F1103.28L",56.4%
same,β-arrestin2 recruitment agonist activity,"DRD2 (D2 long receptor) [3]; DRD2, Tango",full agonist
same,EC50,"DRD2 (D2 long receptor) [3]; DRD2, β-arrestin2 recruitment (Tango), read-out: EC50 ± SEM",48.8 ± 9.47 nM
same,"response, concentration-response data point (replicates)",DRD2 (D2 long receptor) [3]; Log[Drug] -5,104.045 and 116.205 and 96.7104 and 116.434 and 93.993 and 105.729 and 95.4582 and 106.414 and 85.5052
same,"response, concentration-response data point (replicates)",DRD2 (D2 long receptor) [3]; Log[Drug] -5.52,89.1788 and 85.4445 and 90.8217 and 84.5796 and 80.0855 and 101.122 and 96.0613 and 81.9697 and 99.3385
same,"response, concentration-response data point (replicates)",DRD2 (D2 long receptor) [3]; Log[Drug] -6,82.8973 and 82.5495 and 79.2486 and 94.3704 and 78.2631 and 78.6908 and 80.3531 and 91.2175 and 73.5194
same,"response, concentration-response data point (replicates)",DRD2 (D2 long receptor) [3]; Log[Drug] -6.52,72.8482 and 85.473 and 74.6038 and 82.6009 and 103.942 and 82.378 and 70.1593 and 68.4699 and 74.397
same,"response, concentration-response data point (replicates)",DRD2 (D2 long receptor) [3]; Log[Drug] -7,71.4846 and 69.3009 and 62.1089 and 68.8602 and 55.9009 and 59.7861 and 54.6819 and 54.8285 and 54.3284
same,"response, concentration-response data point (replicates)",DRD2 (D2 long receptor) [3]; Log[Drug] -7.52,50.7715 and 50.9759 and 58.0792 and 57.6214 and 43.2407 and 45.9376 and 55.9749 and 62.7315 and 56.5853
same,"response, concentration-response data point (replicates)",DRD2 (D2 long receptor) [3]; Log[Drug] -8,39.7841 and 36.3747 and 29.4664 and 31.1292 and 29.8397 and 30.2988 and 27.2382 and 26.622 and 26.0732
same,"response, concentration-response data point (replicates)",DRD2 (D2 long receptor) [3]; Log[Drug] -8.52,13.2168 and 14.3867 and 13.161 and 13.9303 and 10.9069 and 10.856 and 10.5462 and 11.4912 and 11.2421
same,"response, concentration-response data point (replicates)",DRD2 (D2 long receptor) [3]; Log[Drug] -9,7.123 and 6.617 and 6.837 and 5.043 and 6.064 and 6.895 and 5.588 and 6.122 and 5.826
same,"response, concentration-response data point (replicates)",DRD2 (D2 long receptor) [3]; Log[Drug] -11,5.0524
same,"response, concentration-response data point (replicates)",DRD2 (D2 long receptor) [3]; Log[Drug] -11.52,4.975 and 5.004 and 4.993 and 4.845 and 4.81 and 4.615 and 4.945 and 4.7318 and 4.6555
same,"response, concentration-response data point (replicates)",DRD2 (D2 long receptor) [3]; Log[Drug] -12,4.9053 and 4.975 and 5.325 and 4.582 and 4.593 and 4.629 and 5.065 and 4.845 and 4.581
same,Emax,"DRD2 (D2 long receptor) [3]; HTLA, read-out: Emax relative to quinpirole response, DRD2, Tango",99.6%
same,"β-arrestin2 recruitment response at DRD2 (source data, replicate values)",DRD2 (D2 long receptor) [3]; Log[Drug] -5,73.5777 and 57.7969 and 60.7943 and 65.7822 and 71.9755 and 71.4753 and 62.0106
same,"β-arrestin2 recruitment response at DRD2 (source data, replicate values)",DRD2 (D2 long receptor) [3]; Log[Drug] -5.52,50.6787 and 47.7474 and 41.401 and 56.0167 and 52.8546 and 51.367 and 55.6817
same,"β-arrestin2 recruitment response at DRD2 (source data, replicate values)",DRD2 (D2 long receptor) [3]; Log[Drug] -6,39.3966 and 41.1099 and 37.2084 and 41.7585 and 38.5021 and 38.079 and 42.2149
same,"β-arrestin2 recruitment response at DRD2 (source data, replicate values)",DRD2 (D2 long receptor) [3]; Log[Drug] -6.52,17.548 and 17.9218 and 22.2395 and 30.2893 and 22.7451 and 19.4102 and 21.7916
same,"β-arrestin2 recruitment response at DRD2 (source data, replicate values)",DRD2 (D2 long receptor) [3]; Log[Drug] -7,9.564 and 7.739 and 7.708 and 7.415 and 7.649 and 7.113 and 9.501
same,"β-arrestin2 recruitment response at DRD2 (source data, replicate values)",DRD2 (D2 long receptor) [3]; Log[Drug] -7.52,5.75 and 5.841 and 5.282 and 5.619 and 6.782 and 5.749 and 5.8801
same,"β-arrestin2 recruitment response at DRD2 (source data, replicate values)",DRD2 (D2 long receptor) [3]; Log[Drug] -8,5.434 and 5.45 and 5.389 and 5.042 and 5.329 and 5.148 and 5.345
same,"β-arrestin2 recruitment response at DRD2 (source data, replicate values)",DRD2 (D2 long receptor) [3]; Log[Drug] -8.52,5.277 and 5.01 and 4.9419 and 4.98 and 5.0858 and 5.308 and 5.178
same,"β-arrestin2 recruitment response at DRD2 (source data, replicate values)",DRD2 (D2 long receptor) [3]; Log[Drug] -9,5.4097 and 5.385 and 5.128 and 4.863 and 4.947 and 4.805 and 4.8829
same,"β-arrestin2 recruitment response at DRD2 (source data, replicate values)",DRD2 (D2 long receptor) [3]; Log[Drug] -9.52,5.139 and 4.887 and 4.831 and 4.75 and 5.079 and 5.123 and 4.823
same,"β-arrestin2 recruitment response at DRD2 (source data, replicate values)",DRD2 (D2 long receptor) [3]; Log[Drug] -10,5.431 and 4.786 and 4.659 and 4.856 and 4.756 and 4.79 and 4.8682
same,"β-arrestin2 recruitment response at DRD2 (source data, replicate values)",DRD2 (D2 long receptor) [3]; Log[Drug] -10.52,5.022 and 4.798 and 4.776 and 4.763 and 4.86 and 4.945 and 4.841
same,"β-arrestin2 recruitment response at DRD2 (source data, replicate values)",DRD2 (D2 long receptor) [3]; Log[Drug] -11,4.915 and 4.765 and 4.615 and 4.7302 and 4.774 and 4.749 and 4.971
same,"β-arrestin2 recruitment response at DRD2 (source data, replicate values)",DRD2 (D2 long receptor) [3]; Log[Drug] -11.52,4.946 and 4.662 and 4.627 and 4.695 and 4.751 and 4.656 and 4.732
same,β-arrestin2 recruitment agonist activity,"DRD3; DRD3, Tango",partial agonist
same,EC50,"DRD3; DRD3, Tango, read-out: EC50 ± SEM",808 ± 22 nM
same,"β-arrestin2 recruitment response at DRD3 (source data, replicate values)",DRD3; Log[Drug] -5,4.576 and 3.7 and 3.62 and 3.736 and 5.471 and 3.308 and 2.328
same,"β-arrestin2 recruitment response at DRD3 (source data, replicate values)",DRD3; Log[Drug] -5.52,3.058 and 2.935 and 3.394 and 3.834 and 3.658 and 1.004 and 1.077
same,"β-arrestin2 recruitment response at DRD3 (source data, replicate values)",DRD3; Log[Drug] -6,2.938 and 3.023 and 2.856 and 3.025 and 3.1562 and 0.3638 and 0.509
same,"β-arrestin2 recruitment response at DRD3 (source data, replicate values)",DRD3; Log[Drug] -6.52,3.396 and 2.937 and 2.899 and 3.295 and 4.17 and 0.7903 and 0.1505
same,"β-arrestin2 recruitment response at DRD3 (source data, replicate values)",DRD3; Log[Drug] -7,2.933 and 3.147 and 2.775 and 2.952 and 4.646 and 0.5125 and 2.883
same,"β-arrestin2 recruitment response at DRD3 (source data, replicate values)",DRD3; Log[Drug] -7.52,3.0214 and 3.313 and 2.803 and 3.9395 and 2.8785 and -0.1416 and 0.9462
same,"β-arrestin2 recruitment response at DRD3 (source data, replicate values)",DRD3; Log[Drug] -8,3.394 and 3.834 and 3.658 and 3.117 and 3.387 and 1.887 and -0.07348
